{"source": "patent US20140121240A1", "about": "“NOVEL PHARMACEUTICAL COMPOSITION” (MARUHO CO., LTD., priority 2011, published 2014)", "key": {"[1]": {"system": "oxazolone-induced inflammatory reactions of right ear auricle", "test": "Chronic oxazolone-induced dermatitis model: ear auricle thickness (Experiment 4)", "type": "in vivo, mouse", "settings": "Compound A 1%, Tacrolimus 0.1%, Dexamethasone 0.01% w/v in 0.25% oxazolone", "experimental": "(§1) [Antipruritic Effect of Test Compound in Chronic Oxazolone-Induced Dermatitis Model]\n(§2) A magnet for measurement was implanted into an instep part of right hindlimb of BALB/c male mouse (fed for one week from five-week old; Charles River Laboratories, Japan Inc.) under anesthesia, and on the same day, sensitization was carried out by topically administering 0.5% w/v solution (10 μL) of oxazolone in acetone respectively onto the both sides of right ear auricle of the animal (sensitization day). On each point of the 7th, 9th, 11th, 14th and 16th day reckoned from the day after the sensitization (1st day), each mouse was challenged by topical administration of a 10 μL solution of test compound [acetone (vehicle-treated group), 0.25% w/v solution of oxazolone in acetone (oxazolone-treated group), or a test compound solubilized in 0.25% w/v oxazolone solution in acetone (test compound-treated group)] onto the both sides of right ear auricle of the animal to produce inflammatory reactions. Immediately after the administration, scratching behavior (counts of scratching) was measured for two hours by MicroAct. Thickness of right ear auricle of each mouse was measured by a thickness gauge before and 24 hours after the topical administration of each test compound solution. The percentage described in the Table means “% w/v”."}, "[2]": {"system": "oxazolone-induced scratching behavior", "test": "Chronic oxazolone-induced dermatitis model: scratching behavior (Experiment 4)", "type": "in vivo, mouse", "settings": "Compound A 1%, Tacrolimus 0.1%, Dexamethasone 0.01% w/v in 0.25% oxazolone", "experimental": "as §1, §2"}, "[3]": {"system": "histamine-induced scratching behavior", "test": "Antipruritic effect in histamine-induced scratching model (Experiment 2)", "type": "in vivo, mouse", "settings": "for Antipruritic activity (ratio of inhibition rate on scratching behavior to that of Compound A): 3% w/v in acetone 50 μL topical 1 h before histamine 300 nmol/50 μL, ICR female mice, counts for 30 minutes; for antipruritic effect in histamine-induced scratching model, result in words: 3% w/v topical, histamine 300 nmol/50 μL", "experimental": "[Antipruritic Effect of Test Compound in Histamine-Induced Scratching Model]\nAfter topical administration of a 3% w/v solution of a test compound or a reference compound as described in the following Table 6 in acetone (50 μL) or a vehicle (acetone; 50 μL) onto right dorsal neck of ICR female mice similarly pre-treated as described in Experiment 1, these animals were placed into a testing apparatus (MicroAct). After one hour of the administration of said compound solution or vehicle, a solution (50 μL) of histamine in saline (300 nmol/50 μL) or saline (50 μL) was intradermally administered to right dorsal neck of each mouse. Immediately after the administration, scratching behavior (counts of scratching) was measured for 30 minutes by MicroAct.\nInhibition rate on scratching behavior of each test compound was evaluated in terms of the following formula based on the counts of scratching in the test group in which each test compound solution was administered followed by administration of a histamine solution in saline (counts of scratching in compound-treated group), and the counts of scratching in the test group in which a vehicle (acetone) was administered followed by administration of a histamine solution in saline (counts of scratching in vehicle-treated group).\n(§3) Ratio of inhibition rate on scratching behavior of each test compound to that of Compound A was calculated as antipruritic activity (%). For reference, PDE4 inhibitory activity of each compound (IC50) which was measured by a conventional manner is also shown in such Table."}, "PDE4": {"system": "PDE4", "test": "PDE4 inhibitory activity measured by a conventional manner", "type": "biochemical", "experimental": "as §3"}, "[4]": {"system": "histamine-induced scratching behavior", "test": "Antipruritic activity in histamine-induced scratching model, dose response (Experiment 3 (1))", "type": "in vivo, mouse", "experimental": "(1) [Antipruritic Activity of Test Compound in Histamine-Induced Scratching Model]\nAfter topical administration of a solution (50 μL) of test compound (0.3 to 3% w/v solution of Compound A in acetone, or 0.03 to 0.3% w/v solution of cipamfylline in acetone), or a vehicle (acetone; 50 μL) onto right dorsal neck of ICR female mice similarly pre-treated as described in Experiment 1, these animals were placed into a testing apparatus (MicroAct). After one hour of the administration of said test compound solution or vehicle, a solution (50 μL) of histamine in saline (300 nmol/50 μL) or saline (50 μL; control group) was intradermally administered to right dorsal neck of each mouse. Immediately after the administration, scratching behavior (counts of scratching) was measured for 30 minutes by the testing apparatus (MicroAct)."}, "[5]": {"system": "spontaneous locomotor activity", "test": "Effect on spontaneous locomotor activity (Experiment 3 (2))", "type": "in vivo, mouse", "settings": "for Spontaneous locomotor activity (Mean): measured from 1 h after administration", "experimental": "(2) [Effect of Test Compound on Spontaneous Locomotor Activity] The same solution (50 μL) of test compound or a vehicle (50 μL) as described in the above-mentioned (1) was administered onto right dorsal neck of ICR female mice similarly pre-treated as described in Experiment 1. After one hour of the administration of the test compound solution or vehicle, these animals were placed into an apparatus for measuring spontaneous locomotor activity (SCANET, Melquest Ltd.), and their locomotor activity was measured for 30 minutes."}, "[6]": {"settings": "sensitization day, BALB/c male mouse"}}, "note": "Marks after values point to notes of the source that are not given here."}
{"molecule": "C[C@@H]1C[C@H]2[C@@H]3CCC4=CC(=O)C=C[C@]4(C)[C@@]3(F)[C@@H](O)C[C@]2(C)[C@@]1(O)C(=O)CO", "note": "[Dexamethasone]", "values": [{"measurement": "Ear auricle thickness (Mean)", "setting": "[1]; 7th day", "result": 0.35, "unit": "mm"}, {"measurement": "Ear auricle thickness (Mean)", "setting": "[1]; 8th day", "result": "0.46** mm"}, {"measurement": "Ear auricle thickness (Mean)", "setting": "[1]; 9th day", "result": "0.40** mm"}, {"measurement": "Ear auricle thickness (Mean)", "setting": "[1]; 10th day", "result": "0.45** mm"}, {"measurement": "Ear auricle thickness (Mean)", "setting": "[1]; 11th day", "result": "0.43** mm"}, {"measurement": "Ear auricle thickness (Mean)", "setting": "[1]; 12th day", "result": "0.54** mm"}, {"measurement": "Ear auricle thickness (Mean)", "setting": "[1]; 14th day", "result": "0.49** mm"}, {"measurement": "Ear auricle thickness (Mean)", "setting": "[1]; 15th day", "result": "0.55** mm"}, {"measurement": "Ear auricle thickness (Mean)", "setting": "[1]; 16th day", "result": "0.54** mm"}, {"measurement": "Ear auricle thickness (Mean)", "setting": "[1]; 17th day", "result": "0.64** mm"}, {"measurement": "Ear auricle thickness (Mean)", "setting": "[1]; [6]", "result": 0.27, "unit": "mm"}, {"measurement": "Counts of scratching (Mean ± standard error)", "setting": "[2]; 7th day, BALB/c male mouse", "result": "1663 ± 144 (*) beats/2 hr."}, {"measurement": "Counts of scratching (Mean ± standard error)", "setting": "[2]; 9th day", "result": "1845 ± 442", "unit": "beats/2 hr."}, {"measurement": "Counts of scratching (Mean ± standard error)", "setting": "[2]; 11th day", "result": "1274 ± 296", "unit": "beats/2 hr."}, {"measurement": "Counts of scratching (Mean ± standard error)", "setting": "[2]; 14th day", "result": "1791 ± 354", "unit": "beats/2 hr."}, {"measurement": "Counts of scratching (Mean ± standard error)", "setting": "[2]; 16th day", "result": "2211 ± 430", "unit": "beats/2 hr."}]}
{"molecule": "COc1cc2cc(CO)c(CO)c(-c3ccnc(-n4c(=O)cc(OC)c5ccccc54)c3)c2cc1OC", "note": "[Compound C]", "values": [{"measurement": "Antipruritic activity (ratio of inhibition rate on scratching behavior to that of Compound A)", "setting": "[3]", "result": 116, "unit": "%"}, {"measurement": "antipruritic effect in histamine-induced scratching model, result in words", "setting": "[3]", "result": "remarkable antipruritic effect"}, {"measurement": "IC50", "setting": "PDE4", "result": 2, "unit": "nM"}]}
{"molecule": "COc1cc2cc(CO)c(CO)c(-c3ccnc(-n4ncc5ccccc5c4=O)c3)c2cc1OC", "note": "[Compound B]", "values": [{"measurement": "Antipruritic activity (ratio of inhibition rate on scratching behavior to that of Compound A)", "setting": "[3]", "result": 154, "unit": "%"}, {"measurement": "antipruritic effect in histamine-induced scratching model, result in words", "setting": "[3]", "result": "remarkable antipruritic effect"}, {"measurement": "IC50", "setting": "PDE4", "result": 1, "unit": "nM"}]}
{"molecule": "C=CC[C@@H]1/C=C(\\C)C[C@H](C)C[C@H](OC)[C@H]2O[C@@](O)(C(=O)C(=O)N3CCCC[C@H]3C(=O)O[C@H](/C(C)=C/[C@@H]3CC[C@@H](O)[C@H](OC)C3)[C@H](C)[C@@H](O)CC1=O)[C@H](C)C[C@@H]2OC", "note": "[Tacrolimus]", "values": [{"measurement": "Ear auricle thickness (Mean)", "setting": "[1]; 7th day", "result": 0.35, "unit": "mm"}, {"measurement": "Ear auricle thickness (Mean)", "setting": "[1]; 8th day", "result": 0.58, "unit": "mm"}, {"measurement": "Ear auricle thickness (Mean)", "setting": "[1]; 9th day", "result": "0.41** mm"}, {"measurement": "Ear auricle thickness (Mean)", "setting": "[1]; 10th day", "result": "0.49** mm"}, {"measurement": "Ear auricle thickness (Mean)", "setting": "[1]; 11th day", "result": "0.49** mm"}, {"measurement": "Ear auricle thickness (Mean)", "setting": "[1]; 12th day", "result": "0.57** mm"}, {"measurement": "Ear auricle thickness (Mean)", "setting": "[1]; 14th day", "result": "0.52** mm"}, {"measurement": "Ear auricle thickness (Mean)", "setting": "[1]; 15th day", "result": "0.73** mm"}, {"measurement": "Ear auricle thickness (Mean)", "setting": "[1]; 16th day", "result": "0.65** mm"}, {"measurement": "Ear auricle thickness (Mean)", "setting": "[1]; 17th day", "result": "0.71** mm"}, {"measurement": "Ear auricle thickness (Mean)", "setting": "[1]; [6]", "result": 0.27, "unit": "mm"}, {"measurement": "Counts of scratching (Mean ± standard error)", "setting": "[2]; 7th day, BALB/c male mouse", "result": "1130 ± 135 (**) beats/2 hr."}, {"measurement": "Counts of scratching (Mean ± standard error)", "setting": "[2]; 9th day", "result": "1655 ± 231", "unit": "beats/2 hr."}, {"measurement": "Counts of scratching (Mean ± standard error)", "setting": "[2]; 11th day", "result": "990 ± 148", "unit": "beats/2 hr."}, {"measurement": "Counts of scratching (Mean ± standard error)", "setting": "[2]; 14th day", "result": "1023 ± 148 (**) beats/2 hr."}, {"measurement": "Counts of scratching (Mean ± standard error)", "setting": "[2]; 16th day", "result": "2164 ± 324", "unit": "beats/2 hr."}]}
{"molecule": "COc1cc2cc(CO)c(CO)c(-c3ccnc(-n4ccc5c(CCc6cccnc6)cccc5c4=O)c3)c2cc1OC", "note": "[Reference compound 3]", "values": [{"measurement": "Antipruritic activity (ratio of inhibition rate on scratching behavior to that of Compound A)", "setting": "[3]", "result": "−36", "unit": "%"}, {"measurement": "antipruritic effect in histamine-induced scratching model, result in words", "setting": "[3]", "result": "very weak or was not observed"}, {"measurement": "IC50", "setting": "PDE4", "result": 0.1, "unit": "nM"}]}
{"molecule": "Nc1nc2c([nH]1)c(=O)n(CC1CC1)c(=O)n2CC1CC1", "note": "[Cipamfylline, cipamfylline]", "values": [{"measurement": "Counts of scratching (Mean)", "setting": "[4]; 0.03% w/v in acetone 50 μL topical 1 h before histamine 300 nmol/50 μL", "result": 579, "unit": "beats/30 min."}, {"measurement": "Counts of scratching (Mean)", "setting": "[4]; 0.1% w/v in acetone 50 μL topical 1 h before histamine 300 nmol/50 μL", "result": 369, "unit": "beats/30 min."}, {"measurement": "Counts of scratching (Mean)", "setting": "[4]; 0.3% w/v in acetone 50 μL topical 1 h before histamine 300 nmol/50 μL", "result": 130, "unit": "beats/30 min."}, {"measurement": "Spontaneous locomotor activity (Mean)", "setting": "[5]; 0.03% w/v in acetone 50 μL topical", "result": 6760, "unit": "counts/30 min."}, {"measurement": "Spontaneous locomotor activity (Mean)", "setting": "[5]; 0.1% w/v in acetone 50 μL topical", "result": 5308, "unit": "counts/30 min."}, {"measurement": "Spontaneous locomotor activity (Mean)", "setting": "[5]; 0.3% w/v in acetone 50 μL topical", "result": 4924, "unit": "counts/30 min."}, {"measurement": "spontaneous locomotor activity lowering effect at a dose producing antipruritic effect, result in words", "setting": "[5]; Compound A 3% w/v, cipamfylline 0.3% w/v", "result": "showed a significant spontaneous locomotor activity lowering effect"}]}
{"molecule": "COc1cc2cc(CO)c(CO)c(-c3ccnc(-n4c(=O)cc(O)c5ccccc54)c3)c2cc1OC", "note": "[Compound D]", "values": [{"measurement": "Antipruritic activity (ratio of inhibition rate on scratching behavior to that of Compound A)", "setting": "[3]", "result": 80, "unit": "%"}, {"measurement": "antipruritic effect in histamine-induced scratching model, result in words", "setting": "[3]", "result": "remarkable antipruritic effect"}, {"measurement": "IC50", "setting": "PDE4", "result": 2, "unit": "nM"}]}
